# Laboratory results published in article PMC9321718 (Pharmaceuticals, 2022).
# “Also recorded” adds a separate entry of the source. Where two headings read alike, the source gives them in different places.
# Columns and labels:
# [1] = Dissociation constant of complexes with HPCD by FTIR spectroscopy; format: physicochemical; conditions: complex with HPCD, aqueous solutions, 22 °C
# Description: Changes in the microenvironment of chemical bonds, functional groups, protonation/deprotonation, or the formation of non-valent interactions between the receptor and the ligand (in this case, the formation of guest–host inclusion complexes of CD with EG and apiol molecules) leads to a change in the intensity or position of characteristic peaks in the IR spectra. […] The above-indicated peaks in the IR spectra are composite which was visually confirmed by the changes in the shape of peaks and even the appearance of shoulders when the APAB was turned on in the CD cavity. To separate the complex peaks into components, increase sensitivity and obtain more detailed information, the differentiation method was used. The shifts of minima/maxima of the second derivative of spectra (Figure 2B) in allyl ν(C=C) and aromatic ν(C–C) regions were the most prominent. […]
# ATR-FTIR spectra of samples’ solutions (point 3.3.1) were recorded using a Bruker Tensor 27 spectrometer equipped with a liquid nitrogen cooled MCT (mercury cadmium telluride) detector. […] ATR-FTIR spectra of solid samples placed on KBr glass were recorded using a Bruker Lumos II IR microscope in the region from 700 to 4000 cm^−1 with 1 cm^−1 spectral resolution with scanning in the area on average 1 × 1 microns. […]
# [2] = Formation of inclusion complexes with MCD (UV spectroscopy, Hill linearization); format: physicochemical; conditions: MCD; for EE, % / LC, %: C(MCD) = 0.01 M, pH 6.2, 22 °C; for n: Xaq + n MCDaq ⇌ X·nMCDaq, 5 mM sodium phosphate buffer pH 6.2, 22 °C
# Description: (§1) To optimize the system composition, similar experiments were carried out on the formation of EG and apiol inclusion complexes with HPCD (Figure S1). […] According to these changes, the dissociation constants of the EG–HPCD and apiol–HPCD complexes (Figure S2) were calculated by Hill’s equation (Table 1). […] The physicochemical parameters of the interaction of APAB and terpenoids (X) with CD were studied by determining the concentration of substances in the aqueous fraction ([APAB] + [APAB-MCD]) according to the calibration dependence (Figure 1C) for systems with a constant amount of the essential oil component X and the concentration gradient MCD (Table 1). Theta (θ) is a fraction of the bound substance X:θ = [X-MCD]/([X-MCD] + [X]) and was calculated based on the dependence of the absorption intensity X on the MCD concentration in the system in the form of a sigmoidal Hill curve with subsequent linearization (Section 3, Section 3.3 and Section 3.4).
# (§2) The molar excess of CD varied from 0.04 to 10). Further, the complexes were incubated for 1 h at 37 °C and then centrifuged ([…], 15 min, Eppendorf tubes) to separate the insoluble fractions. Complexes were studied by UV and FTIR spectroscopy.
# (§3) UV spectra of solutions (point 3.3.1) were recorded on the AmerSham Biosciences UltraSpec 2100 pro device (USA) three times in the range of 200–400 nm in a quartz cell Hellma 100–QS with an optical path of 1 cm. Background spectrum (5 mM sodium phosphate buffer (pH 6.2) with 50% EtOH) was subtracted as a blank.
# (§4) (1) Calculation of the dissociation constants X–MCD and X–HPCD, where X is a “guest” compound, considering the equilibrium: Xaq + n MCDaq ↔ X·nMCDaq, where Kd = [MCDaq]^n · [Xaq]/[X·nMCDaq].
# (§5) First, fitting of the curves of change of the analytical signal ξ (peak intensity or peak position) versus concentration of the MCD or HPCD or was carried out using the Hill equations: (1) ξ = ξ∞ · [MCD]^n/([MCD]^n + K^n), where ξ∞—horizontal asymptote; (2) ξ = ξ0 + (ξ∞–ξ0) · [MCD]^n/([MCD]^n + K^n). Second, calculation n and Kd values by Hill’s linearization in n-binding site model: lg (θ/(1 – θ)) = n · lg [L] – lg Kd, where θ = |(ξ – ξ0)/(ξ∞ − ξ0)|is a fraction of the bound substance. N in Hill equation—number of drug molecules per CD torus.
# Calculations for the following items are performed when [MCD] = 0.01 M.
# [3] = Solubility of X in water and in the presence of MCD/HPCD (UV absorbance)
# Description: (3) Solubility of X in water C0 = [Xaq] = A/(ε · l) was determined by UV absorbance after centrifugation of samples (10 min, 10,000× g). l = 1 cm. ε—molar absorbance coefficient (Figure 1C).
# [4] = Formation of inclusion complexes with HPCD (UV spectroscopy, Hill linearization); format: physicochemical; conditions: pH 6.2, 22 °C; for EE, % / LC, %: 0.01 M
# Description: as §1, §2, §3, §4, §5
# [5] = test system: E. coli; test: Synergy of adjuvant-MCD with Lev-MCD, growth inhibition zones in agar; format: cell-based, Escherichia coli; conditions: for D, diameter of bacterial inhibition zone surrounding Lev–MCD with APAB-MCD: Lev-MCD + X-MCD (1:2), ±0.5; for ϕLev = (D/DLev)^2: ±0.1; for FICI: ±15%; for increase in Lev antibacterial activity / efficacy: growth inhibition diameter measurement in agar, inclusion complexes with MCD
# Description: We obtained complex formulations containing adjuvants-MCD and Lev-MCD. These complexes were referred to as enhanced Lev. The synergy effect was studied at a constant concentration of Lev and a variable concentration of an enhancer. […] Based on the D/DLev ratio, the effectiveness of cooperative antibacterial action (ϕ) of the adjuvant and Lev was calculated. The fractional inhibitory concentration (FIC) parameter was introduced: at a fixed Lev concentration, the FIC of adjuvant corresponds to the minimum fractional adjuvant concentration at which the antibacterial effect was still manifest (MICadjuvant in the presence of Lev). The fractional inhibitory concentration index (FICI) characterizes the ratio of the active Lev and adjuvant concentrations to the MIC values of these substances individually: FICI=[Lev]/MIC(Lev)[…][adjuvant]/MIC(adjuvant) (see Section 3).
# The FICI was interpreted as: synergism (<0.35), additivity (0.35–0.75), indifference (0.75–1.4), or antagonism (>1.4). FICI is designed to determine the type of Lev interaction with adjuvants.
# The study of the antibacterial effect of Lev and adjuvants was carried out by (a) agar diffusion test and (b) broth micro-dilution method. (a) A measured 500 µL of 100-fold culture dilution was evenly distributed over a solid nutrient medium (LB, pH 7.2) on a Petri dish. After 20 min, agar disks with a diameter of 9 mm were removed from the cups and 50 µL of the test samples were placed in the formed wells at the required concentration in a sterile PBS buffer (see Section 3.3 (2)). After 30 min, Petri dishes were placed in a 37 °C thermostat. […] Minimum inhibitory concentrations (MICs) are determined as the infimum of multiple concentrations of an antimicrobial that inhibits the visible growth of a microorganism after overnight incubation. (b) According to the standard broth micro-dilution method, 200 µL of the overnight culture (5 × 10^6 CFU) was placed into a 96 micro-titer plate wells. Then 50 µL of tested samples was added. The range of tested Lev concentration was 4–200 ng/mL, adjuvants concentration was in the range of 0.008–2 mg/mL. […] The dependence of CFU (determined by A600) on the concentration of Lev, APAB or terpenoid (briefly X) was approximated according to the Boltzmann equation (Origin software): CFU = (control CFU)/(1 + exp(([X] − MIC50)/constant value)). […] In other words, the concentration at which the ordinate value (CFU) is equal to 50 or 10% of the control sample minus the background.
# The FICI was interpreted as: synergism (<0.35), additivity (0.35–0.75), indifference (0.76–1.4), or antagonism (>1.4). The essence of this expression is to calculate the average change in the effective concentration compared to MIC. Note that the most important parameter corresponds to a decrease in MIC of Lev. However, FICI is designed to determine the type of interaction Lev with adjuvants.
# [6] = pH 6.2
SMILES,Kd [1] [mM],"EE, % [2] [%]","LC, % [2] [%]",n [2],"EE, % [4] [%]","LC, % [4] [%]",n [4],decrease of MICLev in the presence of adjuvant ([5]; E. coli),"D, diameter of bacterial inhibition zone surrounding Lev–MCD with APAB-MCD ([5]; E. coli, CLev 0.1 μg/mL) [mm]","ϕLev = (D/DLev)^2 ([5]; E. coli, CLev 0.1 μg/mL)","FICI ([5]; E. coli, CLev 0.1 μg/mL)","D, diameter of bacterial inhibition zone surrounding Lev–MCD with APAB-MCD ([5]; E. coli, CLev 0.15 μg/mL) [mm]","ϕLev = (D/DLev)^2 ([5]; E. coli, CLev 0.15 μg/mL)","FICI ([5]; E. coli, CLev 0.15 μg/mL)",Cmax in the Presence of 2 mM MCD [6],Cmax in the Presence of 10 mM MCD [6],further results
C=CCc1cc(OC)c2c(c1OC)OCO2 [Apiol],4 ± 0.3,20 ± 2,11 ± 1,1.6 ± 0.2,7 ± 1,9 ± 1,1.56 ± 0.25,up to twice,14.5,1.6,0.35,14,2.0,0.20,–,–,"solubility ([3]; 22 °C, pH 6.2, water): 130 ± 10 µM"
"C=CCc1ccc(O)c(OC)c1 [Eugenol, 4-allyl-2-methoxyphenol]",4.1 ± 0.3,39 ± 3,10 ± 1,1.32 ± 0.08,56 ± 7,9 ± 1,1.2 ± 0.1,–,20,3.3,0.10,15,2.3,0.05,"8.3 ± 0.2 (MCD), 8.5 ± 0.1 (HPCD) mM","11 ± 1 (MCD), 13 ± 1 (HPCD) mM","Cmax in the Presence of 2 mM HPCD [6]: 8.3 ± 0.2 (MCD), 8.5 ± 0.1 (HPCD) mM; Cmax in the Presence of 10 mM HPCD [6]: 11 ± 1 (MCD), 13 ± 1 (HPCD) mM; D, diameter of bacterial inhibition zone surrounding Lev–MCD with APAB-MCD ([5]; E. coli, CLev 0.03 μg/mL): 14 mm; ϕLev = (D/DLev)^2 ([5]; E. coli, CLev 0.03 μg/mL): 2.0; FICI ([5]; E. coli, CLev 0.03 μg/mL): 0.30; D, diameter of bacterial inhibition zone surrounding Lev–MCD with APAB-MCD ([5]; E. coli, CLev 0.05 μg/mL): 17 mm; ϕLev = (D/DLev)^2 ([5]; E. coli, CLev 0.05 μg/mL): 2.9; FICI ([5]; E. coli, CLev 0.05 μg/mL): 0.08; D, diameter of bacterial inhibition zone surrounding Lev–MCD with APAB-MCD ([5]; E. coli, CLev 0.5 μg/mL): 26 mm; ϕLev = (D/DLev)^2 ([5]; E. coli, CLev 0.5 μg/mL): 1.3; FICI ([5]; E. coli, CLev 0.5 μg/mL): 1.3; amplification effect of adjuvant ([5]; E. coli, at minimal Lev concentrations): 3 fold; MICLev in the presence of adjuvant ([5]; E. coli, reduced from 0.10 μg/mL): 0.015 to 0.02 µg/mL; decrease of Lev MIC ([5]; conclusions, bacterium not stated): 3–4 times; increase in Lev antibacterial activity / efficacy ([5]; listed as EG): over three-fold; also recorded: two–three-fold"
CC1CCC(C(C)C)C(O)C1 (centres unmarked) [Menthol],–,91 ± 6,11 ± 1,1.1 ± 0.1,–,–,–,up to twice,13.5,1.7,0.02,14,2.0,0.15,1.4 ± 0.2 mM,8.5 ± 0.8 mM,"EE, % ([2]; listed as menthol): more than 90%; increase in Lev antibacterial activity / efficacy [5]: two–three-fold"
C=CCc1ccc2c(c1)OCO2 [Safrole],–,95 ± 4,8 ± 1,1.5 ± 0.2,–,–,–,–,–,–,–,14.5,2.1,0.09,–,–,"EE, % ([2]; listed as safrole): more than 90%; increased solubility of APAB, times ([3]; APAB–MCD molar ratio 1:5 vs water without MCD, UV): 25 times; MICLev in the presence of adjuvant [5]: 0.015 to 0.02 µg/mL"
